Results from article PMC9250534, “Synthesis and direct assay of large macrocycle diversities by combinatorial late-stage modification at picomole scale” (Nature Communications, 2022).

The compounds below were run against MDM2 (Homo sapiens, UniProt Q00987) (assay: MDM2 binding screen of Libraries 3 and 4: displacement of fluorescent probe F-M8 at 750 nM macrocycle). Settings: Panel b, Library 3: 63 scaffolds combinatorially acylated with 15 carboxylic acids at 30 picomole scale; displacement of fluorescent peptide probe; macrocycle 750 nM.
Outline: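 Competition with nutlin-3a was run using the fluorescein conjugate. Library members came from scaffolds reacted 6 h at room temperature with carboxylic acids (20 equiv.), HBTU and DABCO in DMSO. Quenching was overnight in Tris-Cl pH 7.4 buffer with 0.01% Tween20.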

MDM2, sequence (Q00987 whole entry): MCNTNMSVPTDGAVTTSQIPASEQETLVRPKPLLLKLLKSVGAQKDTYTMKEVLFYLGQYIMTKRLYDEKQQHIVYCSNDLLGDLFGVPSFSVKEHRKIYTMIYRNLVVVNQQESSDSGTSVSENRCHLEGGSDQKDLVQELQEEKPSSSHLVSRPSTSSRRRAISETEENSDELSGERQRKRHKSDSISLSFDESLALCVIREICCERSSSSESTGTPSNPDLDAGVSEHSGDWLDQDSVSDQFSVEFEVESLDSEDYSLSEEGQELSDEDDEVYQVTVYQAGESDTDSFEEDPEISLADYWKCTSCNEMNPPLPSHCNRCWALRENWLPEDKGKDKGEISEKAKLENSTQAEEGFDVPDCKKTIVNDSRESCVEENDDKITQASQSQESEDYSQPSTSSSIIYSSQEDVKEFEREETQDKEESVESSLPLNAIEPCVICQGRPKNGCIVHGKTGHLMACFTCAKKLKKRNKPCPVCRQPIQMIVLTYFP

| SMILES | fraction of fluorescent probe displaced |
| --- | --- |
| O=C(/C=C/c1ccc2ccccc2c1)NCCN1CC(=O)N[C@@H](Cc2c[nH]c3cc(Cl)ccc23)C(=O)NCCSSCCC(=O)NCC2(CC2)C1=O [X-Amcp-N-Aeg-Cl-Trp + Acid 112] | -0.019 |
| O=C(CCS(=O)(=O)c1ccccc1)NCCN1CC(=O)N[C@@H](Cc2c[nH]c3cc(Cl)ccc23)C(=O)NCCSSCCC(=O)NCC2(CC2)C1=O [X-Amcp-N-Aeg-Cl-Trp + Acid 114] | -0.00533 |
| O=C1CCSSCCNC(=O)[C@H](Cc2c[nH]c3cc(Cl)ccc23)NC(=O)CN(CCNC(=O)C2COc3ccccc3O2)C(=O)C2(CC2)CN1 (some centres unmarked) [X-Amcp-N-Aeg-Cl-Trp + Acid 115] | 0.00133 |
| O=C(/C=C/c1ccc(Cl)cc1)NCCN1CC(=O)N[C@H](Cc2c[nH]c3ccccc23)C(=O)NCCSSCCC(=O)NCC2(CC2)C1=O [X-Amcp-N-Aeg-D-Trp + Acid 108] | 0.035 |
| O=C(/C=C/c1ccc(OCc2ccccc2)cc1)NCCN1CC(=O)N[C@H](Cc2c[nH]c3ccccc23)C(=O)NCCSSCCC(=O)NCC2(CC2)C1=O [X-Amcp-N-Aeg-D-Trp + Acid 110] | 0.015 |
| O=C1CCSSCCNC(=O)[C@@H](Cc2c[nH]c3ccccc23)NC(=O)CN(CCNC(=O)c2cccc(Oc3ccccc3)c2)C(=O)C2(CC2)CN1 [X-Amcp-N-Aeg-D-Trp + Acid 111] | 0.008 |
| O=C(/C=C/c1ccc2ccccc2c1)NCCN1CC(=O)N[C@H](Cc2c[nH]c3ccccc23)C(=O)NCCSSCCC(=O)NCC2(CC2)C1=O [X-Amcp-N-Aeg-D-Trp + Acid 112] | 0.008 |
| CC(Oc1cccc(Cl)c1)C(=O)NCCN1CC(=O)N[C@H](Cc2c[nH]c3ccccc23)C(=O)NCCSSCCC(=O)NCC2(CC2)C1=O (stereo partly drawn) [X-Amcp-N-Aeg-D-Trp + Acid 113] | 0.00133 |
| O=C(CCS(=O)(=O)c1ccccc1)NCCN1CC(=O)N[C@H](Cc2c[nH]c3ccccc23)C(=O)NCCSSCCC(=O)NCC2(CC2)C1=O [X-Amcp-N-Aeg-D-Trp + Acid 114] | 0.055 |
| O=C1CCSSCCNC(=O)[C@@H](Cc2c[nH]c3ccccc23)NC(=O)CN(CCNC(=O)C2COc3ccccc3O2)C(=O)C2(CC2)CN1 (stereo partly drawn) [X-Amcp-N-Aeg-D-Trp + Acid 115] | 0.048 |
| Cn1cc(C[C@@H]2NC(=O)CN(CCNC(=O)c3ccc(Cl)s3)C(=O)C3(CC3)CNC(=O)CCSSCCNC2=O)c2ccccc21 [X-Amcp-N-Aeg-Me-Trp + Acid 14] | -0.00533 |
| Cn1cc(C[C@@H]2NC(=O)CN(CCNC(=O)c3ccc(Cl)cc3)C(=O)C3(CC3)CNC(=O)CCSSCCNC2=O)c2ccccc21 [X-Amcp-N-Aeg-Me-Trp + Acid 25] | -0.012 |
| Cn1cc(C[C@@H]2NC(=O)CN(CCNC(=O)c3ccc4ccccc4c3)C(=O)C3(CC3)CNC(=O)CCSSCCNC2=O)c2ccccc21 [X-Amcp-N-Aeg-Me-Trp + Acid 107] | -0.002 |
| Cn1cc(C[C@@H]2NC(=O)CN(CCNC(=O)/C=C/c3ccc(OCc4ccccc4)cc3)C(=O)C3(CC3)CNC(=O)CCSSCCNC2=O)c2ccccc21 [X-Amcp-N-Aeg-Me-Trp + Acid 110] | 0.015 |
| Cn1cc(C[C@@H]2NC(=O)CN(CCNC(=O)c3cccc(Oc4ccccc4)c3)C(=O)C3(CC3)CNC(=O)CCSSCCNC2=O)c2ccccc21 [X-Amcp-N-Aeg-Me-Trp + Acid 111] | 0.015 |
| Cn1cc(C[C@@H]2NC(=O)CN(CCNC(=O)/C=C/c3ccc4ccccc4c3)C(=O)C3(CC3)CNC(=O)CCSSCCNC2=O)c2ccccc21 [X-Amcp-N-Aeg-Me-Trp + Acid 112] | 0.028 |
| CN1C(=O)CN(CCNC(=O)c2ccc(Cl)s2)C(=O)C2(CC2)CNC(=O)CCSSCCNC(=O)[C@@H]1Cc1c[nH]c2ccccc12 [X-Amcp-N-Aeg-NMe-Trp + Acid 14] | -0.012 |
